Data published in patent US20050169912A1, “Immunogenic peptides and uses thereof” (priority 2001, published 2005).

Tested on: antibody in sera from Helicobacter pylori infected patients and healthy control subjects
Experiment: Immunoassay detecting serum antibodies specific for individual peptide antigens
Assay type: binding, human
Conditions: for functional specificity for the H. pylori protein: candidate sequences tested, FIGS. 4 and 5; for ability of peptide to identify Helicobacter pylori infected individuals: 30 infected patients vs 30 healthy controls, threshold control mean plus 2.5 standard deviations
Source text: 1. Possible Outcomes for Peptides Screened as Antigens in Serum Antibody Assays:
1. A positive result indicating the presence of a peptide-specific antibody in patient biological fluid samples, absent evidence of antibody in samples from subjects without the microorganism or autoimmune disease (FIG. 3) indicates the tested peptide is a specific peptide (immunogen) for a targeted protein.
3. No difference in positive antibody levels between patients and subjects without disease.
2. Immunoassay Method 1: Used to Detect Serum IgA, IgD, IgE, IgG, and IgM Antibodies Specific for Individual Peptide Antigens
(§1) Peptide solution: 0.06 μg/mL peptide dissolved in 20 mM Tris chloride, pH 7.4, containing 600 mM sodium chloride, 30 mg/mL polyethylene glycol 4000, 1 mm ethylenediaminetetraacetic acid, 1 mM ethylene glycol-bis(§-aminoethyl ether)N,N,N′,N′-tetraacetic acid, 0.5 mg/mL triton x-405 and 0.2 mg/mL thimerosal.
as §1, with “Control peptide” for “Peptide”, “0.013” for “0.06”, “μg/mL control” for “μg/mL”
Conjugate solution: 0.100 μg/mL alkaline phosphatase conjugated polyclonal goat anti human IgG dissolved in 20 mM Tris-HCL, pH 7.40, with 600 mM sodium chloride, 30.0 mg/mL peg-4000, 3.0 mg/mL BSA, 0.5 mg/mL triton x-405 and 0.20 mg/mL thimerosal.
Substrate solution: 25.2 μg/mL 4-methylumbelliferyl phosphate dissolved in 180 mM 2-amino-2-methyl-1-propanol, pH 9.50, containing 123 μM magnesium chloride.
Serum preparation: • 1. Add 100 μl serum to 15 neutravidin^a coated paper discs in a suitably sized test tube. • 2. Incubate with gentle mixing at ambient temperature for 16-20 hours. • 3. Add 7.9 mL of serum diluent and mix gently for 30 minutes. • 4. Vortex the tube gently to completely release the serum from the discs. • 5. Remove the treated serum from the discs and transfer it to a suitable storage tube. • 6. Store the treated serum at 4 EC.
Assay procedure: • 1. Two days before assay, aspirate the storage solution from the NeutrAvidin^a coated white microtiter plate and add 200 μl plate blocking solution to each well. • 2. Cover the plate and incubate at ambient temperature for 16-20 hours. • 3. One day before assay. Wash the blocked plate three times with plate wash buffer, approximately 275 μl per well per wash. Aspirate the final wash and add 100 μl peptide solution or 100 μl control peptide solution to the appropriate wells of the plate. • 4. Cover the plate and incubate with gentle mixing at ambient temperature for 16-20 hours. • 5. Day of assay, wash the blocked plate three times with plate wash buffer, approximately 275 μl per well per wash. Aspirate the final wash and add 100 μl treated serum to the appropriate wells of the plate. • 6. Cover the plate and incubate at 25 EC for 2 hours. • 7. Wash the blocked plate six times with plate wash buffer, approximately 275 μl per well per wash. Aspirate the final wash and add 100 μl conjugate solution to each assay well. • 8. Cover the plate and incubate at 25 EC for 1.5 hours. • 9. Wash the blocked plate six times with plate wash buffer, approximately 275 μl per well per wash. Aspirate the final wash and add 100 μl substrate solution to each assay well. • 10. Read the plate at 30 and 60 minutes in a fluorescence microtiter plate reader set at 365 nm excitation and 450 nm emission. 3. Biotinylation of Human Serum Albumin

Sequence | functional specificity for the H. pylori protein | detection of fluids from infected persons (Example 1, FIGS. 3-5) | Helicobacter pylori infected individuals identified by the peptide (sera from 30 H. pylori infected patients, positive/negative threshold control mean) | control sera identified as positive for the peptide (sera from 30 healthy control subjects, antibodies to the peptide) | ability of peptide to identify Helicobacter pylori infected individuals
KNLESYQKDA | not functionally specific | – | – | – | –
MQEIDKKLTQKN | – | detected fluids from infected persons | three | no control sera were incorrectly identified as positive | –
QKDAKECKGKRN | – | – | – | – | does not serve to identify Helicobacter pylori infected individuals
QKDAKELKGKRN | not functionally specific | – | – | – | does not serve to identify Helicobacter pylori infected individuals
